The subject of the first assay is KYSE520. The assay is described as follows: Combination growth inhibition (isobologram), KYSE520. The class given is cell-based. The following applies: erlotinib (EGFR inhibitor) combined with a SHP2 inhibitor of the instant disclosure; KYSE520 cells; FIG. 1A.
Sequence of SHP2 (Q06124 whole entry): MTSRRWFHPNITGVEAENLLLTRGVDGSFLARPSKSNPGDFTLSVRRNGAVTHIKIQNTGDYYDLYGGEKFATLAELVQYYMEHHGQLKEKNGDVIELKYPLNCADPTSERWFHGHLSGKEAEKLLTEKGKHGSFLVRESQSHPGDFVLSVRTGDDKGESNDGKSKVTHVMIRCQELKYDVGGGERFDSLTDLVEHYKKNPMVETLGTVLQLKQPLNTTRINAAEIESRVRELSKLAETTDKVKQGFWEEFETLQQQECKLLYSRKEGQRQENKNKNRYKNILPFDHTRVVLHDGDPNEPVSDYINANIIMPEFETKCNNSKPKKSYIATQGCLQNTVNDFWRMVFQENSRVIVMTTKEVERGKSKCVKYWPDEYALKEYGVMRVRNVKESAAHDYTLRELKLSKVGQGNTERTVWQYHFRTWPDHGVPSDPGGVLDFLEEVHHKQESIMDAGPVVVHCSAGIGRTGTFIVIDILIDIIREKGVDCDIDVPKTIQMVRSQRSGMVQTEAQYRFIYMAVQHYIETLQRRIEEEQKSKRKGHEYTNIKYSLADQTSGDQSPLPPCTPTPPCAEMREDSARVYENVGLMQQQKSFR
As to `C#Cc1cccc(Nc2ncnc3cc(OCCOC)c(OCCOC)cc23)c1` [erlotinib], the “growth inhibition (isobologram)” value is listed as “synergistic growth inhibition”.

A further assay has as its target SHP2 (Homo sapiens (Human), UniProt Q06124). The assay is described as follows: SHP2 allosteric inhibition assay (DiFMUP prompt fluorescence). The class given is biochemical.
Conditions: not given
A word on the IC50: it is the concentration needed to halve the response being measured. High values mean weaker potency, low ones greater potency. The molecule `Cc1ccc(C(=O)CSc2cnc(N3CCC4(CC3)Cc3ccccc3[C@H]4N)cn2)cc1` [Example 267, (S)-2-((5-(1-amino-1,3-dihydrospiro[indene-2,4′-piperidin]-1′-yl)pyrazin-2-yl)thio)-1-(p-tolyl)ethan-1-one] displayed an IC50 of under 50 nM.

The same assay, now with this note: 0.25 nM SHP2 activated with 0.5 μM peptide IRS1_pY1172(dPEG8)pY1222; substrate DiFMUP.
As to `Nc1nccc(Oc2n[nH]c3nc(N4CCC5(CC4)Cc4ccccc4[C@H]5N)cnc23)c1Cl` (single isomer, unassigned) [Example 137], the IC50 was at most 50 nM.
The same measure, in the same setting: the figure for `Nc1nccc(Nc2n[nH]c3nc(N4CCC5(CC4)Cc4ccccc4[C@H]5N)cnc23)c1Cl` [Example 138, (S)—N4-(6-(1-amino-1,3-dihydrospiro[indene-2,4′-piperidin]-1′-yl)-1H-pyrazolo[3,4-b]pyrazin-3-yl)-3-chloropyridine-2,4-diamine] is at most 50 nM; for `N[C@H]1c2ccccc2CC12CN(c1cnc3c(N4CCCc5ncccc54)n[nH]c3n1)C2` [Example 114] it is at most 50 nM.
The molecule `N[C@@H]1c2ccccc2CC12CCN(C(=O)c1csc(N3CCCCC3)n1)CC2` [Example 204] displayed an IC50 of at most 50 nM.
On the same count and under the same terms, the figure for `CNC(=O)c1n[nH]c2nc(N3CCC4(CC3)Cc3ccccc3[C@H]4N)c(CO)nc12` [Example 155, 6-[(3S)-3-amino-1,3-dihydrospiro[indene-2,4′-piperidin]-1′-yl]-5-(hydroxymethyl)-N-methyl-1H-pyrazolo[3,4-b]pyrazine-3-carboxamide] is at most 50 nM.
Same read-out and setting: the figure for `COc1cccc(-n2ccc(C(=O)N3CCC4(CC3)Cc3ccccc3[C@H]4N)n2)c1` [Example 287, (1S)-1′-[1-(3-methoxyphenyl)-1H-pyrazole-3-carbonyl]-1,3-dihydrospiro[indene-2,4′-piperidin]-1-amine] is at most 50 nM; for `N[C@@H]1c2ccccc2CC12CCN(c1cnc(C(=O)c3ccccc3)cn1)CC2` [Example 256, (S)-(5-(1-amino-1,3-dihydrospiro[indene-2,4′-piperidin]-1′-yl)pyrazin-2-yl)(phenyl)methanone] it is at most 50 nM.
The same measure, in the same setting: for `N[C@H]1c2ccccc2C[C@@]12CC=C(c1cnc3c(N4CCCc5ncccc54)n[nH]c3n1)CC2` (single isomer, unassigned) [Example 172] the value was 1000 to 10000 nM; for `N[C@@H]1c2ccccc2CC12CCN(c1cnc3c(ccn3-c3cccc4ncccc34)n1)CC2` [Example 192, (3S)-1′-[5-(quinolin-5-yl)-5H-pyrrolo[2,3-b]pyrazin-2-yl]-1,3-dihydrospiro[indene-2,4′-piperidin]-3-amine], 1000 to 10000 nM.
Molecule `Cc1cnc(CO)c(N2CCC3(CC2)Cc2ccccc2[C@H]3N)n1` (single isomer, unassigned) [Example 122] came in with an IC50 of at most 50 nM.
The same measure, in the same setting: for `N[C@H]1c2ccccc2CC12CCN(c1cnc3c(N4CCCc5nc(-c6ccn[nH]6)ccc54)n[nH]c3n1)CC2` [Example 3] the value was at most 50 nM; for `Nc1nccc(Sc2cnc(N3CCC4(CC3)Cc3ccccc3[C@H]4N)cn2)c1Cl` [Example 81, (S)-1′-(5-((2-amino-3-chloropyridin-4-yl)thio)pyrazin-2-yl)-1,3-dihydrospiro[indene-2,4′-piperidin]-1-amine], at most 50 nM.
On the same count and under the same terms, for `Cn1c(N2CCC3(CC2)Cc2ccccc2[C@H]3N)nc2[nH]nc(N3CCCCC3)c2c1=O` (racemic) [Example 200] the value was at most 50 nM; for `Cc1nc(SC2CCCC2)cnc1N1CCC2(CC1)Cc1ccccc1[C@H]2N` [Example 249, (3S)-1′-[5-(cyclopentylsulfanyl)-3-methylpyrazin-2-yl]-1,3-dihydrospiro[indene-2,4′-piperidin]-3-amine], at most 50 nM.
Still for that read-out and setting: for `Cc1c(NCc2cccnc2)ccnc1N1CCC2(CC1)Cc1ccccc1[C@H]2N` [Example 199] the value was at most 50 nM; for `N[C@@H]1c2ccccc2CC12CCN(c1nccnc1CO)CC2` [Example 120, {3-[(3S)-3-amino-1,3-dihydrospiro[indene-2,4′-piperidin]-1′-yl]pyrazin-2-yl}methanol], at most 50 nM; for `Nc1nccc(Oc2cnc(N3CCC4(CC3)Cc3ccccc3[C@H]4N)cn2)c1Cl` [Example 133, (3S)-1′-{5-[(2-amino-3-chloropyridin-4-yl)oxy]pyrazin-2-yl}-1,3-dihydrospiro[indene-2,4′-piperidin]-3-amine], at most 50 nM.
As to `Nc1nccc(Oc2cnc(N3CCC4(CC3)Oc3ccccc3[C@H]4N)cn2)c1Cl` [Example 187, (3R)-1′-{5-[(2-amino-3-chloropyridin-4-yl)oxy]pyrazin-2-yl}-3H-spiro[1-benzofuran-2,4′-piperidin]-3-amine], the IC50 was at most 50 nM.
Regarding `COc1cccc(-n2nccc2C(=O)N2CCC3(CC2)Cc2ccccc2[C@H]3N)c1` [Example 288, (1S)-1′-[1-(3-methoxyphenyl)-1H-pyrazole-5-carbonyl]-1,3-dihydrospiro[indene-2,4′-piperidin]-1-amine], the IC50 is over 10000 nM.
On the same count and under the same terms, the figure for `N[C@@H]1c2cc(F)ccc2OC12CCN(c1cnc(SCC3CC3)cn1)CC2` [Example 239] is 50 to 1000 nM; for `N[C@@H]1c2ccccc2CC12CCN(c1cnc3c(N4CCCc5nc(-c6ccn[nH]6)ccc54)n[nH]c3n1)CC2` [Example 4] it is at most 50 nM; for `Cn1cc(-c2ccc3c(n2)CCCN3c2n[nH]c3nc(N4CCC5(CC4)Cc4ccc(F)cc4[C@H]5N)cnc23)cn1` [Example 40] it is over 10000 nM.
`N[C@@H]1c2ccccc2CC12CCN(c1nc3[nH]nc(Sc4ccnc(Cl)c4Cl)c3nc1CO)CC2` [Example 88] gave an IC50 of at most 50 nM.
Same read-out and setting: the figure for `C[C@@H](C(=O)N1CCC2(CC1)Cc1ccccc1[C@H]2N)c1ccc(F)cc1` (single isomer, unassigned) [Example 291] is over 10000 nM; for `Cc1nc(N2CCC3(CC2)Cc2ccccc2[C@H]3N)c(CO)nc1-c1cccc(Cl)c1Cl` [Example 20, (S)-(3-(1-amino-1,3-dihydrospiro[indene-2,4′-piperidin]-1′-yl)-6-(2,3-dichlorophenyl)-5-methylpyrazin-2-yl)methanol] it is at most 50 nM; for `N[C@@H]1c2ccccc2CC12CCN(c1ncnc3c(-c4cccc(Cl)c4Cl)csc13)CC2` [Example 76] it is at most 50 nM.
`Nc1cnc(CO)c(N2CCC3(CC2)Cc2ccccc2[C@H]3N)n1` [Example 123, {5-amino-3-[(3S)-3-amino-1,3-dihydrospiro[indene-2,4′-piperidin]-1′-yl]pyrazin-2-yl}methanol] gave an IC50 of at most 50 nM.
Still for that read-out and setting: the figure for `N[C@@H]1c2ccccc2CC12CCN(c1cnc(SCCc3ccccc3)cn1)CC2` [Example 265, (S)-1′-(5-(phenethylthio)pyrazin-2-yl)-1,3-dihydrospiro[indene-2,4′-piperidin]-1-amine] is at most 50 nM; for `N[C@@H]1c2ccccc2CC12CCN(c1ncc(SCC3CC3)c(=O)[nH]1)CC2` [Example 237] it is at most 50 nM.
`N[C@H]1c2ccccc2CC12CCN(c1cnc3c(Sc4ccnc(Cl)c4Cl)n[nH]c3n1)CC2` [Example 92] gave an IC50 of at most 50 nM.
On to `Cc1nc(N2CCC3(CC2)Cc2ccccc2[C@H]3N)cnc1N1CCCc2ncccc21` [Example 197], for which the IC50 was at most 50 nM.
Molecule `N[C@@H]1c2ccc(F)cc2OC12CCN(c1cnc(SCC3CC3)cn1)CC2` [Example 240] yielded an IC50 of at most 50 nM.
Same read-out and setting: for `N[C@@H]1c2ccccc2CC12CCN(c1cnc(N3CCCC[C@H]3c3ccccc3)cn1)CC2` (racemic) [Example 176] the value was over 10000 nM.
As for `N[C@@H]1c2ccccc2OC12CCN(c1cnc3c(N4CCCc5ncccc54)n[nH]c3n1)CC2` [Example 119, (R)-1′-(3-(3,4-dihydro-1,5-naphthyridin-1(2H)-yl)-1H-pyrazolo[3,4-b]pyrazin-6-yl)-3H-spiro[benzofuran-2,4′-piperidin]-3-amine], the IC50 was at most 50 nM.
For `N[C@H]1c2ccccc2C[C@]12CC=C(c1cnc3c(N4CCCc5ncccc54)n[nH]c3n1)CC2` [Example 174, (1R,1′R)-4-(3-(3,4-dihydro-1,5-naphthyridin-1(2H)-yl)-1H-pyrazolo[3,4-b]pyrazin-6-yl)-1′,3′-dihydrospiro[cyclohex[3]ene-1,2′-inden]-1′-amine], the IC50 is at most 50 nM.
The same measure, in the same setting: for `N[C@H]1c2c(F)ccc(F)c2CC12CCN(c1cnc3c(N4CCCc5ncccc54)n[nH]c3n1)CC2` [Example 62] the value was at most 50 nM; for `N[C@@H]1c2ccccc2CC12CCN(c1cnc3c(Oc4cc[nH]c(=O)c4Cl)n[nH]c3n1)CC2` [Example 135, 4-({6-[(3S)-3-amino-1,3-dihydrospiro[indene-2,4′-piperidin]-1′-yl]-1H-pyrazolo[3,4-b]pyrazin-3-yl}oxy)-3-chloro-1,2-dihydropyridin-2-one], at most 50 nM; for `N[C@@H]1c2cccc(F)c2OC12CCN(c1cnc(Sc3ccnc(Cl)c3Cl)cn1)CC2` [Example 82, (3R)-1′-{5-[(2,3-dichloropyridin-4-yl)sulfanyl]pyrazin-2-yl}-7-fluoro-3H-spiro[1-benzofuran-2,4′-piperidin]-3-amine], at most 50 nM.
Same read-out and setting: the figure for `N[C@@H]1c2cccc(F)c2OC12CCN(c1cnc3c(N4CCCc5ncccc54)n[nH]c3n1)CC2` [Example 54] is at most 50 nM.
The molecule `N[C@@H]1c2ccccc2CC12CCN(c1cnc(Cc3ccnc(Cl)c3Cl)cn1)CC2` [Example 157, (3S)-1′-{5-[(2,3-dichloropyridin-4-YL)methyl]pyrazin-2-yl}-1,3-dihydrospiro[indene-2,4′-piperidin]-3-amine] gave an IC50 of at most 50 nM.
In the case of `Cc1nc2c(N3CCCC3)n[nH]c2nc1N1CCC2(CC1)Cc1ccccc1[C@H]2N` [Example 254, (1S)-1′-[5-methyl-3-(pyrrolidin-1-yl)-1H-pyrazolo[3,4-b]pyrazin-6-yl]-1,3-dihydrospiro[indene-2,4′-piperidin]-1-amine], the IC50 is over 10000 nM.
On the same count and under the same terms, for `Nc1nccc(Sc2cnc(C34C[C@@H]5C[C@@]6(Cc7ccccc7[C@H]6N)C[C@H](C3)N54)cn2)c1Cl` (some centres unmarked) [Example 231] the value was over 10000 nM.

The values above are taken from patent US10934302B1, “SHP2 phosphatase inhibitors and methods of use thereof” (Relay Therapeutics, Inc., priority 2018, dated 2021).
